Source: patent US11090247B2, “Compositions for protecting the skin from heavy metals and formaldehyde” (FNG RESEARCH CO., LTD., priority 2016, dated 2021)

How the values were obtained:
[1] = Removal test of heavy metals of active ingredients (pig skin, ICP-MS): Cu; conditions: contaminated pig skin
Method: (§1) (1) Preparation of Heavy Metal Contamination Sources and Pig Skin Samples
(§2) A pig was slaughtered, flayed and the bristle was shaved. The pig skin was cut to prepare 5*5 cm size of skin samples respectively.
(§3) The said skin samples were cleanly wiped with wet gauze, and then, added to 50 ml of methanol and extracted by shaking with ultrasonic for 60 min. 50 ml of methanol was further added and mixed. The pig skin samples were removed from the extracted solutions to prepare the test solutions.
(§4) The test solutions were analyzed for heavy metal components using an inductively coupled plasma mass spectrometer (ICP-MS, Xseries™ 2, Thermo Fisher Scientific, UK).

[2] = Removal test of heavy metals of active ingredients (pig skin, ICP-MS): Pb; conditions: contaminated pig skin
Method: as §1, §2, §3, §4

[3] = Removal test of heavy metals of active ingredients (pig skin, ICP-MS): Cd; conditions: contaminated pig skin
Method: as §1, §2, §3, §4

human skin = assay: Skin irritation test of active ingredient (patch method, CTFA guidelines); type: in vivo; parameters: key to Degree of irritation: 0–0.1 none, 0.11–0.3 weak, 0.31–0.5 moderate, ≥0.51 strong irritation; conditions: 20 people, patch 24 hours; for Test result(number of subject) (+): (+): Apparent reddening than periphery; for Test result(number of subject) (++): (++): More reddened and swollen than periphery; for Test result(number of subject) (±): (±): slightly reddish than the periphery; for Test result(number of subject) (−): (−): No erythema or particularly no symptoms
Method: A total of 20 people (10 men and 10 women in their 20 s and 30 s) were tested for skin irritation using the patch method according to the guidelines of CTFA (The Cosmetic, Toiletry & Fragrance Association, Inc. Washington, D.C.).
A filter paper disk was placed in an 8 mm diameter, 10 panels of pin chamber.
After 24 hours, the pin chamber was removed, and skin conditions were visually observed.
[Criteria for Skin Irritation]
(−): No erythema or particularly no symptoms; (±): slightly reddish than the periphery; (+): Apparent reddening than periphery; (++): More reddened and swollen than periphery.
[Grade for Skin Irritation]
Degree of irritation 0-0.1: Grade I (unstimulated);
Degree of irritation 0.11-0.3: Grade II (weakly stimulated);
Degree of irritation 0.31-0.5: Grade III (moderately stimulated);
Degree of irritation 0.51 or more: Grade IV (strongly stimulated)

[4] = Formaldehyde removing ability test (GC); conditions: 2.0% formaldehyde solution; for Area (mAU*min) 30 min: formaldehyde GC area after 30 min; for Area (mAU*min) 30 min / Area (mAU*min) 180 min: 3 molar equivalents, room temperature; for Area (mAU*min) 180 min: formaldehyde GC area after 180 min; for Area (mAU*min) Initial: formaldehyde GC area, initial state, 3 molar equivalents of compound

O=C(O)CN(CCN(CC(=O)O)CC(=O)O)CC(=O)O [1(EDTA), Ethylenediaminetetraacetic acid, reference compound]
Removal of Heavy metals Cu (%) ([1]; 0.1 wt % aqueous solution): 86.5%
Removal of Heavy metals Cu (%) ([1]; 0.5 wt % aqueous solution): 88.6%
Removal of Heavy metals Cu (%) ([1]; 1.0 wt % aqueous solution): 89.2%
Removal of Heavy metals Pb (%) ([2]; 0.1 wt % aqueous solution): 84.3%
Removal of Heavy metals Pb (%) ([2]; 0.5 wt % aqueous solution): 88.3%
Removal of Heavy metals Pb (%) ([2]; 1.0 wt % aqueous solution): 89.6%
Removal of Heavy metals Cd (%) ([3]; 0.1 wt % aqueous solution): 82.3%
Removal of Heavy metals Cd (%) ([3]; 0.5 wt % aqueous solution): 87.3%
Removal of Heavy metals Cd (%) ([3]; 1.0 wt % aqueous solution): 88.3%

C1CNCCNCCNCCN1 [Cyclen, 1,4,7,10-tetraazacyclododecane]
Removal of Heavy metals Cu (%) ([1]; 0.1 wt % aqueous solution): 93.1%
Removal of Heavy metals Cu (%) ([1]; 0.5 wt % aqueous solution): 96.6%
Removal of Heavy metals Cu (%) ([1]; 1.0 wt % aqueous solution): 97.8%
Removal of Heavy metals Pb (%) ([2]; 0.1 wt % aqueous solution): 91.7%
Removal of Heavy metals Pb (%) ([2]; 0.5 wt % aqueous solution): 93.7%
Removal of Heavy metals Pb (%) ([2]; 1.0 wt % aqueous solution): 94.3%
Degree of irritation (human skin; 0.1 wt %): 0
Grade (human skin; 0.1 wt %): I (Degree of irritation 0-0.1: Grade I (unstimulated))
Test result(number of subject) (+) (human skin; 0.1 wt %): 0
Test result(number of subject) (++) (human skin; 0.1 wt %): 0
Test result(number of subject) (±) (human skin; 0.1 wt %): 0
Test result(number of subject) (−) (human skin; 0.1 wt %): 20
Degree of irritation (human skin; 0.5 wt %): 0
Grade (human skin; 0.5 wt %): I (Degree of irritation 0-0.1: Grade I (unstimulated))
Test result(number of subject) (+) (human skin; 0.5 wt %): 0
Test result(number of subject) (++) (human skin; 0.5 wt %): 0
Test result(number of subject) (±) (human skin; 0.5 wt %): 0
Test result(number of subject) (−) (human skin; 0.5 wt %): 20
Degree of irritation (human skin; 1.0 wt %): 0.15
Grade (human skin; 1.0 wt %): II (Degree of irritation 0.11-0.3: Grade II (weakly stimulated))
Test result(number of subject) (+) (human skin; 1.0 wt %): 1
Test result(number of subject) (++) (human skin; 1.0 wt %): 0
Test result(number of subject) (±) (human skin; 1.0 wt %): 1
Test result(number of subject) (−) (human skin; 1.0 wt %): 18
Removal of Heavy metals Cd (%) ([3]; 0.1 wt % aqueous solution): 88.6%
Removal of Heavy metals Cd (%) ([3]; 0.5 wt % aqueous solution): 91.1%
Removal of Heavy metals Cd (%) ([3]; 1.0 wt % aqueous solution): 91.4%
Area (mAU*min) 30 min [4]: 0.181 mAU*min
Area (mAU*min) 180 min [4]: 0 mAU*min
Area (mAU*min) Initial [4]: 0.305 mAU*min

O=C(O)CN(CCN(CCN(CC(=O)O)CC(=O)O)CC(=O)O)CCN(CC(=O)O)CC(=O)O [Embodiment 1, 3,6,9,12-tetrakis(carboxymethyl)-3,6,9,12-tetraazatetradecanedioic acid]
Removal of Heavy metals Cu (%) ([1]; 0.1 wt % aqueous solution): 95.2%
Removal of Heavy metals Cu (%) ([1]; 0.5 wt % aqueous solution): 97.3%
Removal of Heavy metals Cu (%) ([1]; 1.0 wt % aqueous solution): 97.5%
Removal of Heavy metals Pb (%) ([2]; 0.1 wt % aqueous solution): 91.1%
Removal of Heavy metals Pb (%) ([2]; 0.5 wt % aqueous solution): 92.0%
Removal of Heavy metals Pb (%) ([2]; 1.0 wt % aqueous solution): 92.1%
Degree of irritation (human skin; 0.1 wt %): 0
Grade (human skin; 0.1 wt %): I (Degree of irritation 0-0.1: Grade I (unstimulated))
Test result(number of subject) (+) (human skin; 0.1 wt %): 0
Test result(number of subject) (++) (human skin; 0.1 wt %): 0
Test result(number of subject) (±) (human skin; 0.1 wt %): 0
Test result(number of subject) (−) (human skin; 0.1 wt %): 20
Degree of irritation (human skin; 0.5 wt %): 0.05
Grade (human skin; 0.5 wt %): I (Degree of irritation 0-0.1: Grade I (unstimulated))
Test result(number of subject) (+) (human skin; 0.5 wt %): 0
Test result(number of subject) (++) (human skin; 0.5 wt %): 0
Test result(number of subject) (±) (human skin; 0.5 wt %): 1
Test result(number of subject) (−) (human skin; 0.5 wt %): 19
Degree of irritation (human skin; 1.0 wt %): 0.20
Grade (human skin; 1.0 wt %): II (Degree of irritation 0.11-0.3: Grade II (weakly stimulated))
Test result(number of subject) (+) (human skin; 1.0 wt %): 0
Test result(number of subject) (++) (human skin; 1.0 wt %): 0
Test result(number of subject) (±) (human skin; 1.0 wt %): 4
Test result(number of subject) (−) (human skin; 1.0 wt %): 16
Removal of Heavy metals Cd (%) ([3]; 0.1 wt % aqueous solution): 91.0%
Removal of Heavy metals Cd (%) ([3]; 0.5 wt % aqueous solution): 93.0%
Removal of Heavy metals Cd (%) ([3]; 1.0 wt % aqueous solution): 94.1%
Area (mAU*min) 30 min [4]: 0.170 mAU*min
Area (mAU*min) 180 min [4]: 0 mAU*min
Area (mAU*min) Initial [4]: 0.305 mAU*min

O=C(O)c1ccc(N(CCN(CCN(c2ccc(C(=O)O)cc2)c2ccc(C(=O)O)cc2)c2ccc(C(=O)O)cc2)CCN(c2ccc(C(=O)O)cc2)c2ccc(C(=O)O)cc2)cc1 [Embodiment 2, 4,4′,4″,4′″-(((ethane-1,2-diylbis((4-carboxyphenyl)azanediyl))bis(ethane-2,1-diyl))bis(azanetriyl))tetrabenzoic acid]
Removal of Heavy metals Cu (%) ([1]; 0.1 wt % aqueous solution): 93.5%
Removal of Heavy metals Cu (%) ([1]; 0.5 wt % aqueous solution): 95.8%
Removal of Heavy metals Cu (%) ([1]; 1.0 wt % aqueous solution): 96.9%
Removal of Heavy metals Pb (%) ([2]; 0.1 wt % aqueous solution): 86.4%
Removal of Heavy metals Pb (%) ([2]; 0.5 wt % aqueous solution): 88.6%
Removal of Heavy metals Pb (%) ([2]; 1.0 wt % aqueous solution): 89.0%
Degree of irritation (human skin; 0.1 wt %): 0
Grade (human skin; 0.1 wt %): I (Degree of irritation 0-0.1: Grade I (unstimulated))
Test result(number of subject) (+) (human skin; 0.1 wt %): 0
Test result(number of subject) (++) (human skin; 0.1 wt %): 0
Test result(number of subject) (±) (human skin; 0.1 wt %): 0
Test result(number of subject) (−) (human skin; 0.1 wt %): 20
Degree of irritation (human skin; 0.5 wt %): 0
Grade (human skin; 0.5 wt %): I (Degree of irritation 0-0.1: Grade I (unstimulated))
Test result(number of subject) (+) (human skin; 0.5 wt %): 0
Test result(number of subject) (++) (human skin; 0.5 wt %): 0
Test result(number of subject) (±) (human skin; 0.5 wt %): 0
Test result(number of subject) (−) (human skin; 0.5 wt %): 20
Degree of irritation (human skin; 1.0 wt %): 0.05
Grade (human skin; 1.0 wt %): I (Degree of irritation 0-0.1: Grade I (unstimulated))
Test result(number of subject) (+) (human skin; 1.0 wt %): 0
Test result(number of subject) (++) (human skin; 1.0 wt %): 0
Test result(number of subject) (±) (human skin; 1.0 wt %): 1
Test result(number of subject) (−) (human skin; 1.0 wt %): 19
Removal of Heavy metals Cd (%) ([3]; 0.1 wt % aqueous solution): 87.3%
Removal of Heavy metals Cd (%) ([3]; 0.5 wt % aqueous solution): 89.7%
Removal of Heavy metals Cd (%) ([3]; 1.0 wt % aqueous solution): 90.5%
Area (mAU*min) 30 min [4]: 0.168 mAU*min
Area (mAU*min) 180 min [4]: 0 mAU*min
Area (mAU*min) Initial [4]: 0.305 mAU*min
